Data taken from patent US12605305B2, “Application of citrate metal salt in endodontic treatment, and formulation obtained by preparation” (KUNMING QINGCHENG HEALTHCARE TECH LTD., priority 2020, dated 2026).
Entries after “also recorded” stand apart in the source; their conditions may differ. Like-named read-outs stand apart in the source and are kept apart here.

Tests used:
[1] = Compatibility of cationic antibacterial agent with sodium citrate solution; format: physicochemical; conditions: for Phenomenon (compatibility with sodium citrate solution): 20% sodium citrate solution mixed 1:1 with 0.2% agent solution, room temperature, dark, 7 days
Description: (§1) Materials to be tested: sodium citrate, potassium citrate, lithium citrate, citric acid, EDTA-2Na.
(§2) Each of the citric acid metal salts to be tested was prepared as a 20% aqueous solution; the citric acid to be tested was prepared as a 20% aqueous solution; the EDTA-2Na to be tested was prepared as a 10% aqueous solution; and the cationic antibacterial agent to be tested was prepared as a 0.2% aqueous solution. Each of the prepared aqueous solutions of citrate metal salt (or citric acid aqueous solutions) was mixed with each of the prepared aqueous solutions of cationic antibacterial agent to be tested at a ratio of 1:1.
(§3) All the mixed solutions were stored at room temperature in dark and left standing for 7 days before observation.

[2] = Compatibility of cationic antibacterial agent with potassium citrate solution; format: physicochemical; conditions: for Phenomenon (compatibility with potassium citrate solution): 20% potassium citrate solution mixed 1:1 with 0.2% agent solution, room temperature, dark, 7 days
Description: as §1, §2, §3

[3] = Compatibility of cationic antibacterial agent with lithium citrate solution; format: physicochemical; conditions: for Phenomenon (compatibility with lithium citrate solution): 20% lithium citrate solution mixed 1:1 with 0.2% agent solution, room temperature, dark, 7 days
Description: as §1, §2, §3

[4] = Compatibility of cationic antibacterial agent with citric acid solution; format: physicochemical; conditions: 20% citric acid solution mixed 1:1 with 0.2% agent solution, room temperature, dark, 7 days
Description: as §1, §2, §3

[5] = Compatibility of cationic antibacterial agent with EDTA-2Na solution; format: physicochemical; conditions: 10% EDTA-2Na solution mixed 1:1 with 0.2% agent solution, room temperature, dark, 7 days
Description: as §1, §2, §3

[6] = Evaluation of the effect of removing smear layer in vitro (SEM of treated root canal specimens)
From the text: Healthy single premolars that need to be extracted for the purpose of clinical orthodontic extraction. Patient age: 14-25 years old. Inclusion criteria: single upright unobstructed root canal, fully developed apical foramen, no near-pulp caries or near-pulp fillings, no history of pulp therapy, no apical root resorption, no root fracture, and other defects, and no periodontal disease.
The soft tissue and calculus around the root of the isolated teeth were removed. The isolated teeth were cleaned and packed for high-temperature and high-pressure steam sterilization. Three sterilized isolated teeth were taken randomly and placed in 10 ml of BHI liquid culture medium, cultured at 37° C. for 24 h, and then taken out. With the naked eye, if the BHI liquid culture medium remains transparent, it is considered that the sterilization effect is reliable. If the BHI liquid culture medium is turbid, it is necessary to re-disinfect all samples and repeat the above steps. After confirmation of successful sterilization, the samples were stored at room temperature for later use.
The pulp chamber of the isolated teeth confirmed to be successfully sterilized was opened using a high-speed hand-piece with an emery ball bit with a diameter of 0.5 mm. After pulp extirpation, the root canal was dredged with an ISO standard #10 stainless steel hand K file, until the file tip that just penetrated the apical foramen was seen. The file was measured for length, from which 0.5 mm was subtracted to establish the working length of the root canal. Then the root canal preparation was performed using a Protaper Universal Engine with Nickel-titanium root canal file to 25/06. […]

[7] = cited from earlier work
[8] = root canal treated for 5 minutes

Row | Compound | compatibility with sodium citrate (conclusion in words) [1] | Phenomenon (compatibility with sodium citrate solution) [1] | compatibility with potassium citrate (conclusion in words) [2] | Phenomenon (compatibility with potassium citrate solution) [2] | compatibility with lithium citrate (conclusion in words) [3] | Phenomenon (compatibility with lithium citrate solution) [3] | Phenomenon (compatibility with citric acid solution) [4] | Phenomenon (compatibility with EDTA-2Na solution) [5] | effect of removing the smear layer [6, 8] | pH value ([7]; 5% citric acid solution) | pH value ([7]; 10% citric acid solution) | effect of removing the smear layer ([6]; treatment time as per figures (1, 5 and/or 10 min) or not stated)
1 | CCCCCCCCCCCC[N+](C)(C)Cc1ccccc1.[Br-] [dodecyl dimethyl benzyl ammonium bromide] | compatible | − | compatible | − | compatible | − | − | − |  |  |  | 
2 | CCCCCCCCCCCCCCCC[n+]1ccccc1.[Cl-] [hexadecyl pyridinium chloride, reference compound] | compatible | − | compatible | − | compatible | − | − | − |  |  |  | 
3 | CCCCCCCCCCCC[N+](C)(C)Cc1ccccc1.[Cl-] [dodecyl dimethyl benzyl ammonium chloride] | compatible | − | compatible | − | compatible | − | − | − |  |  |  | 
4 | CCCCCCCCCCCC[N+](C)(C)C.[Cl-] [dodecyl trimethyl ammonium chloride] | compatible | − | compatible | − | compatible | − | − | − |  |  |  | 
5 | polyhexamethylene biguanide hydrochloride |  | + |  | + |  | + | + | + |  |  |  | 
6 | O=P([O-])([O-])OP(=O)([O-])[O-].[K+].[K+].[K+].[K+] [potassium pyrophosphate] |  |  |  |  |  |  |  |  | could not improve the effect of the formulation on removing the smear layer |  |  | 
7 | O=C(O)CC(O)(CC(=O)O)C(=O)O [citric acid] |  |  |  |  |  |  |  |  |  | 1.93 | 1.91 | 
8 | N=C(NCCCCCCNC(=N)NC(=N)Nc1ccc(Cl)cc1)NC(=N)Nc1ccc(Cl)cc1.O=C(O)[C@H](O)[C@@H](O)[C@H](O)[C@H](O)CO.O=C(O)[C@H](O)[C@@H](O)[C@H](O)[C@H](O)CO [chlorhexidine gluconate, reference compound] |  | + |  | + |  | + | + | + |  |  |  | 
9 | polyhexamethyl guanidine hydrochloride |  | + |  | + |  | + | + | + |  |  |  | 
10 | N-cocoyl-L-arginine ethyl ester-DL-pyrrolidone carboxylate |  | + |  | + |  | + | + | + |  |  |  | 
11 | polydimethyl diallyl ammonium chloride | compatible | − | compatible | − | compatible | − | − | − |  |  |  | 
12 | O=P(O)(O)OP(=O)(O)OP(=O)(O)O [sodium tripolyphosphate] |  |  |  |  |  |  |  |  | not helpful for sodium citrate to improve the effect of removing the smear layer |  |  | cannot be effective in removing the smear layer; also recorded: very poor effect of removing the smear layer
13 | CC(=O)O.CC(=O)O.NC(=N\CCCCCC/N=C(N)/N=C(\N)Nc1ccc(Cl)cc1)/N=C(\N)Nc1ccc(Cl)cc1 [chlorhexidine acetate, reference compound] |  | + |  | + |  | + | + | + |  |  |  | 
